Test results published in patent US20260041706A1, “MUCUS MEMBRANE FORMULATIONS AND USES THEREOF” (priority 2022, published 2026).
Values joined by “and” are separate entries in the source; they are usually repeats but may differ in a detail not shown here. Equal values may be shown once. Read-outs that look alike come from different tables or passages of the source.

Assays:
[1] = test system: HKx31 Influenza A virus (H3N2); assay: In vitro neutralization assay with Influenza A (plaque assay in MDCK cells); assay type: cell-based; conditions: 10 or 60 min incubation; agent evaluated individually
SARS-CoV-2 mNG = assay: In vitro neutralization assay with SARS-CoV-2 (focus-forming assay in Vero E6 cells); assay type: cell-based
[2] = test system: Escherichia coli (E. coli); assay: In vitro neutralization assay with bacteria (CFU), E. coli; assay type: cell-based; conditions: incubation time of 30 min
Description: (§1) Neutralization was determined by measuring the bactericidal activity. Each agent was individually incubated with either E. coli or K. pneumoniae for 30 or 60 min, followed by 1-minute centrifugation, and then evaluating the bacterial load in the supernatant using a colony-forming assay.
(§2) An overnight culture of bacteria was prepared in 5 mL tryptic soy broth (TSB, Sigma Aldrich) media. On the day of the experiment, bacteria suspension was adjusted to obtain an OD600 nm=0.2, which corresponds to 10^8 CFU/mL. […] After incubation, the sample/bacteria mixture was 10-fold serially diluted in 1×PBS, and 10 mL of each dilution was plated onto pre-poured LB (Luria Broth, HiMedia Laboratories Pvt Ltd) agar plates followed by an incubation of 16-18 h at 37° C., 5% CO2. The plates were then counted for CFUs.

Klebsiella pneumoniae = assay: In vitro neutralization assay with bacteria (CFU), K. pneumoniae; assay type: cell-based; conditions: incubation time of 30 min
Description: as §1, §2

[3] = for fluorescence intensity (droplet capture) relative to mucus or biopolymer mixture without surfactant: surfactant 0.05% w/V in gellan (0.2% w/v) and pectin (0.75% w/v) mixture
[4] = mouse, in vivo
Excerpt: (§3) To test our hypothesis, we compared nasal residence time of DiR-loaded mixture of gellan and pectin without or with surfactants.
(§4) In vivo biodistribution and nasal residence. Nasal residence time of the formulation was determine in mice. […] Mice were euthanized at different time points and nasal cavity was harvested and imaged using IVIS (Bruker's In-Vivo Xtreme optical and x-ray in vivo imaging system) at an excitation and emission wavelength of 680/700 nm. Vital organs such as lung, liver, spleen, kidney, and heart, were also imaged at 2 and 24 h time points. To determine the mechanism of long residence time, animals were intranasally instilled with DiR-mixed gellan (0.02% w/v) and pectin (0.75% w/v) mixture without or with BKC and tween-80. After 8 h, animals were euthanized to harvest and image the nasal cavity using Perkin Elmer IVIS Lumina II and the total flux was expressed in (p/sec/m^2/sr).

[5] = test system: human nasal epithelial cell (RPMI-2650)-based monolayer
RPMI 2650 cells = conditions: 0.5% w/v; 24 or 48 h incubation
[6] = In vivo biodistribution and nasal residence (DiR fluorescence, IVIS); conditions: 8 h post-nasal administration, DiR-loaded
Excerpt: as §3, §4

| Substance | reduction in IAV viral titer in host cells in comparison to PBS [1] | minimum concentration required to achieve >4-log fold (>99.99%) reduction in SARS-CoV-2 viral load (SARS-CoV-2 mNG) | reduction in SARS-CoV-2 viral load in host cells (SARS-CoV-2 mNG; 10 or 60 min incubation, agent evaluated individually) | neutralization efficiency of BKC against SARS-CoV-2 in presence of gellan or pectin (SARS-CoV-2 mNG; BKC 0.01% w/v, gellan 0.2% w/v or pectin 0.75% w/v, 10 min) | reduction in colony-forming units (CFU) of E. coli [2] | reduction in colony-forming units (CFU) of Klebsiella pneumoniae (Klebsiella pneumoniae) | capture of respiratory droplets (in words) ([3]; BKC at 0.01% w/v) | fluorescence intensity (droplet capture) relative to mucus or biopolymer mixture without surfactant [3] | surfactant concentration above which fluorescence intensity (droplet capture) increased significantly ([3]; surfactant combined with gellan/pectin mixture, vs mucus or only biopolymer mixture) | nasal residence of gellan and pectin mixture on addition of surfactant [4] | change in TEER (in words) ([5]; Triton-X 0.1% w/v, negative control) | transient dip in TEER immediately after addition ([5]; irrespective of the concentrations evaluated) | time for TEER to reverse to original value after replacing with fresh medium ([5]; medium replaced at 4 h) | metabolic activity of RPMI-2650 cells (RPMI 2650 cells) | nasal residence of gellan and pectin mixture on addition of surfactant [6] |
| --- | --- | --- | --- | --- | --- | --- | --- | --- | --- | --- | --- | --- | --- | --- | --- |
| benzalkonium chloride [BKC] | 1 log fold | 0.01 % w/v | 5 log fold and > 99.99% | not impacted | 4 log fold | 7 log fold | didn't increase the capture of respiratory droplets | 4 fold | higher than 0.01 % w/v | significantly enhanced the nasal residence |  |  |  |  |  |
| Triton X-100 [Triton-X, reference compound] |  |  |  |  |  |  |  |  |  |  | permanent change in the TEER |  |  |  |  |
| polyoxyethylene 20 sorbitan monooleate [Tween-80] | 1 log fold |  |  |  |  |  |  | 4 fold |  |  |  | less than 15% | less than 1 h | significant reduction in the metabolic activity | significantly enhanced the nasal residence |
